Assay results reported in PubChem BioAssay AID602210 (Sanford-Burnham Center for Chemical Genomics, 2012).
Calls of active or inactive are those of the source. How the calls were made is not given here.

Assay: H9c2 cardiomyoblast viability modulators under 2-DG – cell-based, ATPlite luminescence, rat, set 2, myocardial damage modulator project, dose response (AID 602210)
Details: H9c2 rat cardiomyoblasts, 2-deoxyglucose-induced death, 2 h

Compound	IC50
COC(=O)c1cccc(S(=O)(=O)N(Cc2ccco2)Cc2cc3cc(OC)ccc3[nH]c2=O)c1	11.6 µM (inactive)
O=C(COC(=O)c1ccccc1C(=O)OCC(=O)NCCc1c[nH]c2ccccc12)NCCc1c[nH]c2ccccc12	9.24 µM
COc1cc(/C=N/n2nnnc2Nc2ccccc2)cc(OC)c1OC	38.1 µM (inactive)
O=C(NCC(=O)N(Cc1cccs1)C(C(=O)NC1CCCCC1)c1ccco1)c1ccco1 (stereo not drawn)	18.5 µM (inactive)
COC(=O)c1ccccc1NC(=O)/C=C/c1cc(OC)c(OC)c(OC)c1	> 79 µM (inactive)
COc1ccc(-c2ccc3c(c2)S(=O)(=O)c2cccc(C(=O)N4CCN(c5c(Cl)cncc5Cl)CC4)c2C3=O)cc1OC	8.36 µM
CCN(CC)S(=O)(=O)c1ccc(Nc2nc3ccccc3n3nnnc23)cc1	7.9 µM
COc1ccccc1N1CCN(C(=O)c2ccc3nc(-c4ccco4)c(-c4ccco4)nc3c2)CC1	14 µM (inactive)
CCn1c(O)c(/C=N/N=C2CCCCC2)c2cc(C3=NNC(=O)CC3)ccc21	21.6 µM (inactive)
CC(C(=O)NC1CCCC1)N(C(=O)Cn1nnc(-c2ccc(F)cc2)n1)c1ccccc1F (stereo not drawn)	11.3 µM (inactive)
Nc1c(C(=O)N/N=C/c2cccnc2)oc2nc(-c3ccccc3)cc(-c3ccco3)c12	3.52 µM
O=C(c1ccco1)N1CCN(C(=O)c2cc(-c3ccncc3)nc3ccc(Br)cc23)CC1	25.8 µM (inactive)
COc1ccccc1-c1cc(NC(C)=O)c2ncc(-c3cccc(C(C)=O)c3)n2c1	> 79 µM (inactive)
Cc1ccccc1C(C(=O)NCc1ccccc1)N(Cc1ccco1)C(=O)c1ccccn1 (stereo not drawn)	45.6 µM (inactive)
COc1cccc(-c2cnc3c(NC=O)cc(-c4ccc(O)c(OC)c4)cn23)c1	8.51 µM
CC(C)OCCCNC(=O)CCC(=O)NNc1nc2ccccc2c2nc(-c3ccccc3)nn12	22.2 µM (inactive)
COc1cc(-c2cnc3c(NC=O)cc(-c4cccnc4)cn23)cc(OC)c1OC	36.2 µM (inactive)
C[C@@H](NC(=O)c1nc[nH]c1C(=O)NCC(=O)OCc1ccccc1)c1ccccc1	9.89 µM
Cc1ccc(-c2csc(N3CCC[C@@H]3C(=O)NCCn3c(-c4ccncc4)nc4ccccc43)n2)cc1	8.85 µM
COc1cccc(CN2CCN(C(=O)c3cc(-c4cccnc4)nc4ccc(C)cc34)CC2)c1	48.8 µM (inactive)
COC(=O)c1cc2c(-c3ccccc3)cc3ccccn3c-2c1C(=O)OC	12.7 µM (inactive)
COc1cc(NC(=O)c2ccco2)c(C(=O)OCC(=O)c2c[nH]c3ccccc23)cc1OC	6.43 µM

Compound	IC50
CCCCNC(=O)c1cn(-c2ccc(OCC)cc2)c(=O)c2cc(OC)c(OC)cc12	39.2 µM (inactive)
COc1ccccc1OP(=O)(Nc1cccnc1)Oc1ccccc1OC	8.19 µM
CCOC(=O)c1ccccc1OCc1cc(/C=N/NC(=O)c2cccnc2)ccc1OC	6.98 µM
CCOC(=O)c1cccc(Nc2nc(-c3cccnc3)nc3ccccc23)c1	> 79 µM (inactive)
CCOCCCNC(=O)CCC(=O)NNc1nc2ccccc2c2nc(-c3ccccc3)nn12	35.6 µM (inactive)
COc1cc(CCNc2ccc3nnc(-c4ccccc4)n3n2)cc(OC)c1OC	30.6 µM (inactive)
O=C(NCc1ccco1)c1cc(-c2cccnc2)nc2ccc(Cl)cc12	> 79 µM (inactive)
COc1ccc(OC)c(/C=N/Nc2nncn2/N=C/c2cc(OC)ccc2OC)c1	> 79 µM (inactive)
CCn1nc(C(=O)NNC(=O)c2cc(Cl)ccc2OC)c2ccccc2c1=O	> 79 µM (inactive)
COc1cc(NC(=O)c2cc3c(C)nc4ccccc4c3o2)cc(OC)c1OC	11.2 µM (inactive)
COc1cc(-c2cc(C(=O)Nc3ccccc3N3CCOCC3)c3ccccc3n2)cc(OC)c1OC	11.2 µM (inactive)
COC(=O)c1ccc(C(C(=O)NCc2ccccc2)N(Cc2cccs2)C(=O)c2cnccn2)cc1 (stereo not drawn)	13.4 µM (inactive)
COc1ccc(OC)c(Nc2nc(N)c([N+](=O)[O-])c(N3CCOCC3)n2)c1	27.5 µM (inactive)
NC(=O)c1nsc(C(=O)N(Cc2ccco2)C(C(=O)NCc2ccccc2)c2ccc(O)cc2)c1N (stereo not drawn)	14.9 µM (inactive)
O=C(Nc1cccc2cccnc12)c1ccc2sc([C@H]3C[C@H](O)[C@@H](CO)O3)nc2c1	24.3 µM (inactive)
COc1ccc2o/c(=N/NC(=O)c3cccs3)c(C(N)=O)cc2c1	21.5 µM (inactive)
COCCCNC(=O)/C(C#N)=C1\N=C(NC(=O)c2cccs2)c2ccccc21	> 79 µM (inactive)
Cc1cccc(NC(=O)c2nc[nH]c2C(=O)NCCCCCCNC(=O)c2[nH]cnc2C(=O)Nc2cccc(C)c2)c1	> 79 µM (inactive)
CC(=O)c1ccc(N2CCN(C(=O)C3CCCN(c4ncnc5c4nc4n5CCCCC4)C3)CC2)cc1 (stereo not drawn)	25.6 µM (inactive)
O=C(c1cc(-c2cccnc2)nc2ccc(Br)cc12)N1CCN(c2ncccn2)CC1	16.2 µM (inactive)
COc1cc(C(=O)N/N=C/c2ccc(OC(=O)c3ccccc3Cl)cc2)ccc1O	> 79 µM (inactive)
COc1cc(/C=C/c2nc(-c3ccccc3O)n[nH]2)cc(OC)c1OC	> 79 µM (inactive)

Compound	IC50
O=C(COc1cccc(NC(=O)c2cccc([N+](=O)[O-])c2)c1)c1ccc(F)cc1	11.2 µM (inactive)
Cc1cccc(NC(=O)c2oc3ccc(S(=O)(=O)N4CCOCC4)cc3c2C)c1C	11 µM (inactive)
COc1ccc(-c2nn3c(-c4ccco4)nnc3s2)cc1OC	28.2 µM (inactive)
CC(=O)c1ccc(N2CCN(C(=O)c3cc(-c4cccnc4)nc4ccc(Br)cc34)CC2)cc1	15.7 µM (inactive)
COc1cc(-c2cc(NC=O)c3ncc(-c4ccc(C(C)=O)cc4)n3c2)ccc1O	> 79 µM (inactive)
CC(=O)Nc1ccc(S(=O)(=O)N(Cc2ccco2)Cc2cc3ccccc3[nH]c2=O)cc1	8.86 µM
Cc1ccc(S(=O)(=O)N2CCN(C(=O)c3cc(=O)[nH]c4ccccc34)CC2)c(C)c1	23 µM (inactive)
CC(C)(C)OC(=O)C[C@@H]1C/C=C\C[C@@H](CC(=O)N[C@@H](CO)Cc2ccccc2)C(=O)NC[C@@H](c2ccccc2)OC1=O	22.6 µM (inactive)
CC(=O)Nc1cccc(-c2cc(NC=O)c3ncc(-c4ccc(C(C)=O)cc4)n3c2)c1	13.6 µM (inactive)
COc1ccc(COc2cc(-c3cccc(OC)c3)nc3ccc(NC(=O)c4ccc(OC)cc4)cc23)cc1	4.21 µM
CCc1nnc(NC(=O)CCC(=O)N2CCN(C3c4ccccc4-c4ccccc43)CC2)s1	29.1 µM (inactive)
COc1cccc(-c2nn3c(-c4ccccn4)nnc3s2)c1	16.1 µM (inactive)
CCOC(=O)C1CCN(c2cc3c(cc2NC(=O)c2ccc(OC)c(OC)c2)n(C)c(=O)n3C)CC1	4.59 µM
COc1cc(C(=O)Nc2cccc(-c3nnc(-c4ccco4)o3)c2)ccc1OC(C)=O	9.42 µM
O=C(CN1CCN(c2ccccn2)CC1)Nc1ccc([N+](=O)[O-])cc1C(=O)Nc1ccccc1F	12.8 µM (inactive)
N#C/C(=C\c1ccc(-c2cccc([N+](=O)[O-])c2)o1)C(=O)NCCN1CCOCC1	> 79 µM (inactive)
COc1cc(-c2cc(NC=O)c3ncc(-c4ccc(C(C)=O)cc4)n3c2)cc(OC)c1OC	6.7 µM
CCOc1cccc(Nc2cc3n(c(=O)n2)CCc2cc(OC)c(OC)cc2-3)c1	28 µM (inactive)
COC(=O)c1cc2c(C)c(C)c3ccccn3c-2c1C(=O)OC	7.29 µM
CC(=O)Nc1ccc(Nc2nc(-c3sc(NC(C)=O)nc3C)cs2)cc1	18.8 µM (inactive)
CCCCn1nc(NC(=O)c2cccs2)c2cc3cc(OC)ccc3nc21	> 79 µM (inactive)
COc1ccc(-c2cnc3c(NC=O)cc(-c4cccc(NS(C)(=O)=O)c4)cn23)cc1OC	13.4 µM (inactive)

Compound	IC50
Cn1c(=O)c2[nH]c(NN=Cc3ccc(Br)cc3)nc2n(C)c1=O	10.6 µM (inactive)
CC1(C)CC(=O)C2=C(C1)N(CCN1CCOCC1)C1=C(C(=O)CC(C)(C)C1)C2c1ccc(Cl)cc1	39.1 µM (inactive)
O=C(Nc1nc(-c2cc(F)ccc2F)cs1)C1=NN(c2ccccc2)C(=O)CC1	14.2 µM (inactive)
COc1ccc(/C=N/NC(=O)c2cc(-c3ccc4c(c3)OCO4)n[nH]2)cc1OC	9.02 µM
COCCn1cnc2c(c1=O)c1nc3ccccc3nc1n2/N=C/c1cccc(OC)c1	> 79 µM (inactive)
CCOC(=O)c1c(C)[nH]c(C)c1C(=O)COc1ncnc2cc([N+](=O)[O-])ccc12	19.8 µM (inactive)
COC(=O)c1cc2ccc(OC)cc2c2cc(OC)c(OC)cc12	> 79 µM (inactive)
O=C(N/N=C/c1ccccn1)c1[nH]c2ccc([N+](=O)[O-])cc2c1-c1ccccc1	> 79 µM (inactive)
Cn1c(=O)[nH]c(=O)c2c1nc(Br)n2CC(O)COc1ccc(Cl)cc1 (stereo not drawn)	22.8 µM (inactive)
COc1cc(/C=C/C(=O)Nc2ccc3nc4n(c(=O)c3c2)CCCC4)cc(OC)c1OC	20.6 µM (inactive)
Cc1nn(C)cc1C(C(=O)NC1CCCCC1)N(C(=O)Cc1cccs1)c1ccc(Cl)cc1 (stereo not drawn)	29.8 µM (inactive)
CC(C)(C)OC(=O)CNC(=O)c1[nH]cnc1C(=O)Nc1ccc(CNC(=O)OC(C)(C)C)cc1	5.09 µM
O=C(Nc1ccccc1)c1nc[nH]c1C(=O)NCCCCNC(=O)c1[nH]cnc1C(=O)Nc1ccccc1	4.11 µM
CCn1cc(C(=O)Nc2cccc(NC(C)=O)c2)c2cc(OC)c(OC)cc2c1=O	39.1 µM (inactive)
CCC(CC)C(=O)Nc1cc(C)c2c(=O)oc3ccccc3c2n1	36.4 µM (inactive)
O=C(CCCn1c(SCC(=O)c2ccc(O)c(O)c2)nc2ccccc2c1=O)NCC1CCCO1 (stereo not drawn)	36.8 µM (inactive)
CCOC(=O)C1CCN(c2cc3c(cc2NC(=O)c2ccccc2)n(C)c(=O)n3C)CC1	10 µM
CC(C)(C)OC(=O)C[C@H]1C/C=C\C[C@H](CC(=O)N[C@H](CO)Cc2ccccc2)C(=O)N[C@H](Cc2ccccc2)COC1=O	59.9 µM (inactive)
CC(=O)c1ccc(-c2cnc3c(NC=O)cc(-c4ccc(C(=O)NC5CC5)cc4)cn23)cc1	6.57 µM
COc1ccc(N(CC(=O)Nc2cccc(C(C)=O)c2)S(=O)(=O)c2ccc(NC(C)=O)cc2)cc1	13.4 µM (inactive)
COc1ccc(-c2cc(NC(C)=O)c3ncc(-c4cccc(C(C)=O)c4)n3c2)cc1OC	8.06 µM
COc1cccc(-c2cnc3c(NC=O)cc(-c4cc(C)c(O)c(C)c4)cn23)c1	18.9 µM (inactive)
